Patent US20260092071A1, “COMPOUNDS AND COMPOSITIONS AS SMARCA2/4 DEGRADERS AND USES THEREOF” (REGENTS OF THE UNIVERSITY OF MICHIGAN, priority 2022, published 2026)

How the values were obtained:
SMARCA2 = SMARCA2 (Homo sapiens, UniProt P51531); assay: HiBit assay in engineered HT1080 CRISPR knock-in cell, 6 hrs (B series), SMARCA2; assay type: cell-based; details: 6 hrs incubation; for DC50: read-out: SMARC A2 HT1080 HiBit DC50; for Dmax: HT-1080, HT1080 CRISPR knock-in cells, read-out: SMARC A2 HT1080 HiBit Dmax (%)
In short: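 HT1080 CRISPR knock-in cells carrying HiBiT-tagged SMARCA2 seeded onto compound (0.1% DMSO) at 2000 cells/well. Incubated 6 h at 37 °C, 5% CO2, then lysed with Nano-Glo HiBiT lytic reagent containing LgBiT, and luminescence read.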

SMARCA4 = SMARCA4 (Homo sapiens, UniProt P51532); assay: HiBit assay in engineered HT1080 CRISPR knock-in cell, 6 hrs (B series), SMARCA4; assay type: cell-based; details: 6 hrs incubation; for DC50: read-out: SMARC A4 HT1080 HiBit DC50; for Dmax: HT-1080, HT1080 CRISPR knock-in cells, read-out: SMARC A4 HT1080 HiBit Dmax(%)
In short: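 Using a 6 hr treatment window at 37° C and 5% CO2, tagged HT1080 knock-in cells were exposed to test compounds with DMSO vehicle held at 0.1%. Signal came from lytic LgBiT/substrate reagent added after incubation, with control wells lacking LgBiT, and was read as luminescence.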

Chain of SMARCA4 (P51532 whole entry): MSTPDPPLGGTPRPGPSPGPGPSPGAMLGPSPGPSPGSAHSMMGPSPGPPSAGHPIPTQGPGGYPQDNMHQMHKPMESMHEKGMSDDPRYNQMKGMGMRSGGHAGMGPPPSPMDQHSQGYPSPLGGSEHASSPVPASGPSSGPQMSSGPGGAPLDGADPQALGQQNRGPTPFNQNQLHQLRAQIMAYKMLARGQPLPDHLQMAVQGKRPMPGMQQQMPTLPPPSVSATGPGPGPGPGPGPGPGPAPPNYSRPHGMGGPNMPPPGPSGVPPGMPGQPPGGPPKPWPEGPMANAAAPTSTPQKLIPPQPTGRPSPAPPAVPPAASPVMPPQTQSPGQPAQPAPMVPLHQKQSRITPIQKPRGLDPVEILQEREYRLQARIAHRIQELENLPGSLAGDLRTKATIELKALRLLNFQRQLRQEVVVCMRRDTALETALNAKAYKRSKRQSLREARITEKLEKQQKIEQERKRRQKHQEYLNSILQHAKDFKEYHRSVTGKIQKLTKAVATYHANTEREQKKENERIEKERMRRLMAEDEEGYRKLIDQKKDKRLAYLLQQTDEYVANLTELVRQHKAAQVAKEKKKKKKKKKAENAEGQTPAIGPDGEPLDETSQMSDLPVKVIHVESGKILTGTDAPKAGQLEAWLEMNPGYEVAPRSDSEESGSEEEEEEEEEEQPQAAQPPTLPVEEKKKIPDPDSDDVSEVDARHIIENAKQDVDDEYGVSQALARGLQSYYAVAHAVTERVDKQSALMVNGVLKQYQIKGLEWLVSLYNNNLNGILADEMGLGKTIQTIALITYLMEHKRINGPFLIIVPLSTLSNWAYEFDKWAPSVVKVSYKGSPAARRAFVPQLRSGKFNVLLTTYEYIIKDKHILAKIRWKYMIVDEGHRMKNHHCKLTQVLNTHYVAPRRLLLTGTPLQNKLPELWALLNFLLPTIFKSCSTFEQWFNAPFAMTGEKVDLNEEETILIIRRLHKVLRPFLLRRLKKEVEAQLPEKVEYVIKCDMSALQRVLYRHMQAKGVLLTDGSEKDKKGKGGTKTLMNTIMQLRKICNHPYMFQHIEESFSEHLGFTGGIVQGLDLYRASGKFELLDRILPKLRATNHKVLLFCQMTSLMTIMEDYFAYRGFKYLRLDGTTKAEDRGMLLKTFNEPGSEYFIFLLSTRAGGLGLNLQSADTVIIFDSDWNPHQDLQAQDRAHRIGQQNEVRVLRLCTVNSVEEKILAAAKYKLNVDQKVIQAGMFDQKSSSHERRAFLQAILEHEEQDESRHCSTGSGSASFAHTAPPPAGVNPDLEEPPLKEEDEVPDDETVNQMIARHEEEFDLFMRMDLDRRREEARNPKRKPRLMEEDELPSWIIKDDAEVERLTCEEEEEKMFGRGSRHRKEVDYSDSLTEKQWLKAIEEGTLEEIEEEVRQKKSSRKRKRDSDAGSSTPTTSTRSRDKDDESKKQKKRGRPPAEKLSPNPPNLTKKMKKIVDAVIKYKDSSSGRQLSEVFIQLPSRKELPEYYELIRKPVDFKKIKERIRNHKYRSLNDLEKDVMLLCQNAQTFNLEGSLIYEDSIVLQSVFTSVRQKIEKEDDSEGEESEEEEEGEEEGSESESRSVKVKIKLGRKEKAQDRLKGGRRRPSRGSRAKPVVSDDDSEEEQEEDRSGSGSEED
Chain of SMARCA2 (P51531 whole entry): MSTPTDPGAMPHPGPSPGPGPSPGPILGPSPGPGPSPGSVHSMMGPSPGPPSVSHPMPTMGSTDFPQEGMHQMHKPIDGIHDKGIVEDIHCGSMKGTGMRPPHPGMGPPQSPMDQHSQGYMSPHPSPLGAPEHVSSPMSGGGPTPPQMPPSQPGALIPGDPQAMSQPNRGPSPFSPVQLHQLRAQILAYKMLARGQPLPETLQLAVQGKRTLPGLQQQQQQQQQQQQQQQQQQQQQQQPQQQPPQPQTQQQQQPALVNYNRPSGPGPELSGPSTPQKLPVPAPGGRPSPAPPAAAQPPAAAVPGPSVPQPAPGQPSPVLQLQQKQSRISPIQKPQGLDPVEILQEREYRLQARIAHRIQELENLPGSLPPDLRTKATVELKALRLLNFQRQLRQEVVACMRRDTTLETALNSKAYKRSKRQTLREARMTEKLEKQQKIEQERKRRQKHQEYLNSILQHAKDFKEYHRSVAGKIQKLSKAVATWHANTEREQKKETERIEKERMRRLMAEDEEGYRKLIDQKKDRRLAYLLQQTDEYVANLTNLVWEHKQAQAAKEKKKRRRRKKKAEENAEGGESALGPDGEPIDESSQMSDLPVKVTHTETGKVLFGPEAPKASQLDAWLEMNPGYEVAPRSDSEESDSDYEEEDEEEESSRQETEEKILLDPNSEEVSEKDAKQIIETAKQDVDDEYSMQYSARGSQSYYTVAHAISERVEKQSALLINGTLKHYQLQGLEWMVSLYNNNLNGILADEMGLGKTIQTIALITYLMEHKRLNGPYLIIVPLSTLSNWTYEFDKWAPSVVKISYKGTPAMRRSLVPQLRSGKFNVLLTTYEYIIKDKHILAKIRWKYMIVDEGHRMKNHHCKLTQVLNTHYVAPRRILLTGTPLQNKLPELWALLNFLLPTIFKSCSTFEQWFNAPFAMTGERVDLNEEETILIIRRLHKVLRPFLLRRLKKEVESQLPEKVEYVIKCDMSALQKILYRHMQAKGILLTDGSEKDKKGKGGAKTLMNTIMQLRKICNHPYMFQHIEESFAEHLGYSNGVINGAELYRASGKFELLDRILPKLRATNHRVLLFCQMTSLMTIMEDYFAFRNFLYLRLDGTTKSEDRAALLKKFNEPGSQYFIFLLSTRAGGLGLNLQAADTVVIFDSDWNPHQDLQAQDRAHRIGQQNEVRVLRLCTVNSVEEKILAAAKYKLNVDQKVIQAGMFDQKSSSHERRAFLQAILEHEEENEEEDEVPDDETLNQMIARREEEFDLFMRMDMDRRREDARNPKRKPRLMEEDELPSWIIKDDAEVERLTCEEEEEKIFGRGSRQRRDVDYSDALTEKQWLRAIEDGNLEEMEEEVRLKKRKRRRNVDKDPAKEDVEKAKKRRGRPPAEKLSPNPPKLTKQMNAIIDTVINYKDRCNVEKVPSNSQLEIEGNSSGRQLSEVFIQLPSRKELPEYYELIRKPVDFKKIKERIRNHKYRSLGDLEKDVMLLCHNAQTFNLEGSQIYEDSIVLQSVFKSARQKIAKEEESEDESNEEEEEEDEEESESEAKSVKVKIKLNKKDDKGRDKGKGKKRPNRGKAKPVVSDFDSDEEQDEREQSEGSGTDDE

SMILES	DC50 (SMARCA2; HT1080 CRISPR knock-in cells)	Dmax (SMARCA2)	DC50 (SMARCA4; HT1080 CRISPR knock-in cells)	Dmax (SMARCA4)	SMARC A2 HT1080 HiBit Dmax (%) (SMARCA2; HT1080 CRISPR knock-in cells)	SMARC A4 HT1080 HiBit Dmax(%) (SMARCA4; HT1080 CRISPR knock-in cells)
Cc1ncsc1-c1ccc([C@H](C)NC(=O)[C@@H]2C[C@@H](O)CN2C(=O)[C@H](C(C)C)n2cc(C3CCC(N4CCC(c5cccc6c5C(C)(C)c5nc(=O)c7c(Cl)cccc7n5-6)CC4)CC3)nn2)cc1 (stereo partly drawn) [Compound B114, (2S,4R)-1-((S)-2-(4-(4-(4-(4-chloro-7,7-dimethyl-5-oxo-5,7-dihydroindolo[1,2-a]quinazolin-8-yl)piperidin-1-yl)cyclohexyl)-1H-1,2,3-triazol-1-yl)-3-methylbutanoyl)-4-hydroxy-N-((S)-1-(4-(4-methylthiazol-5-yl)phenyl)ethyl)pyrrolidine-2-carboxamide]	< 0.1 µM	70 to 90%	0.1 to 0.5 µM	< 50%		
Cc1ncsc1-c1ccc(CNC(=O)[C@@H]2C[C@@H](O)CN2C(=O)[C@@H](NC(=O)C2(F)CC2)C(C)(C)C)c(OCCCCN2CCC(c3ccc4c(c3)-n3c(nc(=O)c5c(Cl)cccc53)C4(C)C)CC2)c1 [Compound B35, (2S,4R)—N-(2-(4-(4-(4-chloro-7,7-dimethyl-5-oxo-5,7-dihydroindolo[1,2-a]quinazolin-10-yl)piperidin-1-yl)butoxy)-4-(4-methylthiazol-5-yl)benzyl)-1-((S)-2-(1-fluorocyclopropane-1-carboxamido)-3,3-dimethylbutanoyl)-4-hydroxypyrrolidine-2-carboxamide]	< 0.1 µM	> 90%	< 0.1 µM	> 90%		
Cc1ncsc1-c1ccc([C@H](C)NC(=O)[C@@H]2C[C@@H](O)CN2C(=O)[C@@H](n2cc([C@H]3CC[C@H](CN4CCN(c5ccc6c(c5)-n5c(nc(=O)c7c(Cl)cccc75)C6(C)C)CC4)CC3)nn2)C(C)(C)C)cc1 [Compound B121, (2S,4R)-1-((S)-2-(4-((1r,4S)-4-((4-(4-chloro-7,7-dimethyl-5-oxo-5,7-dihydroindolo[1,2-a]quinazolin-10-yl)piperazin-1-yl)methyl)cyclohexyl)-1H-1,2,3-triazol-1-yl)-3,3-dimethylbutanoyl)-4-hydroxy-N-((S)-1-(4-(4-methylthiazol-5-yl)phenyl)ethyl)pyrrolidine-2-carboxamide]	< 0.1 µM	> 90%	< 0.1 µM	70 to 90%		
Cc1ncsc1-c1ccc([C@H](C)NC(=O)[C@@H]2C[C@@H](O)CN2C(=O)[C@@H](NC(=O)CCn2cc(-c3ccc4c(c3)-n3c(nc(=O)c5c(Cl)cccc53)C4(C)C)cn2)C(C)(C)C)cc1 [Compound B92, (2S,4R)-1-((S)-2-(3-(4-(4-chloro-7,7-dimethyl-5-oxo-5,7-dihydroindolo[1,2-a]quinazolin-10-yl)-1H-pyrazol-1-yl)propanamido)-3,3-dimethylbutanoyl)-4-hydroxy-N-((S)-1-(4-(4-methylthiazol-5-yl)phenyl)ethyl)pyrrolidine-2-carboxamide]	> 1 µM	< 50%	> 1 µM	< 50%		
Cc1ncsc1-c1ccc([C@H](C)NC(=O)[C@@H]2C[C@@H](O)CN2C(=O)[C@@H](c2cc(N3CCC(CN4CCC(c5ccc6c(c5)C(C)(C)c5nc(=O)c7c(Cl)cccc7n5-6)CC4)CC3)no2)C(C)C)cc1 [Compound B9, (2S,4R)-1-((R)-2-(3-(4-((4-(4-chloro-7,7-dimethyl-5-oxo-5,7-dihydroindolo[1,2-a]quinazolin-9-yl)piperidin-1-yl)methyl)piperidin-1-yl)isoxazol-5-yl)-3-methylbutanoyl)-4-hydroxy-N—((S)-1-(4-(4-methylthiazol-5-yl)phenyl)ethyl)pyrrolidine-2-carboxamide]	< 0.1 µM	> 90%	< 0.1 µM	> 90%		
CC(C)C(C(=O)N1C[C@H](O)C[C@H]1C(=O)N[C@@H](C)c1ccc(-c2ncnn2C)cc1)c1cc(OCCN2CCC(c3ccc4c(c3)C(C)(C)c3nc(=O)c5c(Cl)cccc5n3-4)CC2)no1 (stereo partly drawn) [Compound B74, (2S,4R)-1-(2-(3-(2-(4-(4-chloro-7,7-dimethyl-5-oxo-5,7-dihydroindolo[1,2-a]quinazolin-9-yl)piperidin-1-yl)ethoxy)isoxazol-5-yl)-3-methylbutanoyl)-4-hydroxy-N-((S)-1-(4-(1-methyl-1H-1,2,4-triazol-5-yl)phenyl)ethyl)pyrrolidine-2-carboxamide]	0.1 to 0.5 µM	< 50%	> 1 µM	< 50%		
Cc1ncsc1-c1ccc([C@H](C)NC(=O)[C@@H]2C[C@@H](O)CN2C(=O)[C@H](C(C)C)n2cc(C3CCC(c4cccc5c4C(C)(C)c4nc(=O)c6c(Cl)cccc6n4-5)CC3)nn2)cc1 (stereo partly drawn) [Compound B161, (2S,4R)-1-((S)-2-(4-(4-(4-chloro-7,7-dimethyl-5-oxo-5,7-dihydroindolo[1,2-a]quinazolin-8-yl)cyclohexyl)-1H-1,2,3-triazol-1-yl)-3-methylbutanoyl)-4-hydroxy-N-((S)-1-(4-(4-methylthiazol-5-yl)phenyl)ethyl)pyrrolidine-2-carboxamide]	< 0.1 µM		< 0.1 µM		A (A (>90% degradation))	C (C (50-69% degradation))

Further lines, results first:

DC50 (SMARCA2; HT1080 CRISPR knock-in cells)	Dmax (SMARCA2)	DC50 (SMARCA4; HT1080 CRISPR knock-in cells)	Dmax (SMARCA4)	SMARC A2 HT1080 HiBit Dmax (%) (SMARCA2; HT1080 CRISPR knock-in cells)	SMARC A4 HT1080 HiBit Dmax(%) (SMARCA4; HT1080 CRISPR knock-in cells)	SMILES
< 0.1 µM	> 90%	0.1 to 0.5 µM	70 to 90%			Cc1ncsc1-c1ccc([C@H](CN2CCOCC2)NC(=O)[C@@H]2C[C@@H](O)CN2C(=O)[C@@H](n2cc([C@H]3CC[C@H](CN4CCC(c5ccc6c(c5)-n5c(nc(=O)c7c(Br)cccc75)C6(C)C)CC4)CC3)nn2)C(C)(C)C)cc1 [Compound B105, (2S,4R)-1-((S)-2-(4-((1r,4S)-4-((4-(4-bromo-7,7-dimethyl-5-oxo-5,7-dihydroindolo[1,2-a]quinazolin-10-yl)piperidin-1-yl)methyl)cyclohexyl)-1H-1,2,3-triazol-1-yl)-3,3-dimethylbutanoyl)-4-hydroxy-N—((R)-1-(4-(4-methylthiazol-5-yl)phenyl)-2-morpholinoethyl)pyrrolidine-2-carboxamide]
< 0.1 µM	> 90%	0.1 to 0.5 µM	50 to 69%			C[C@H](NC(=O)[C@@H]1C[C@@H](O)CN1C(=O)[C@@H](n1cc([C@H]2CC[C@H](CN3CCC(c4ccc5c(c4)-n4c(nc(=O)c6c(Cl)cccc64)C5(C)C)CC3)CC2)nn1)C(C)(C)C)c1ccc(-c2scnc2Cl)cc1 [Compound B117, (2S,4R)-1-((S)-2-(4-((1r,4S)-4-((4-(4-chloro-7,7-dimethyl-5-oxo-5,7-dihydroindolo[1,2-a]quinazolin-10-yl)piperidin-1-yl)methyl)cyclohexyl)-1H-1,2,3-triazol-1-yl)-3,3-dimethylbutanoyl)-N-((S)-1-(4-(4-chlorothiazol-5-yl)phenyl)ethyl)-4-hydroxypyrrolidine-2-carboxamide]
< 0.1 µM	50 to 69%	> 1 µM	< 50%			Cc1ncsc1-c1ccc([C@H](C)NC(=O)[C@@H]2C[C@@H](O)CN2C(=O)C(c2cc(CN3CCC(c4ccc5c(c4)-n4c(nc(=O)c6c(Cl)cccc64)C5(C)C)CC3)no2)C(C)C)cc1 (stereo partly drawn) [Compound B62, (2S,4R)-1-(2-(3-((4-(4-chloro-7,7-dimethyl-5-oxo-5,7-dihydroindolo[1,2-a]quinazolin-10-yl)piperidin-1-yl)methyl)isoxazol-5-yl)-3-methylbutanoyl)-4-hydroxy-N-((S)-1-(4-(4-methylthiazol-5-yl)phenyl)ethyl)pyrrolidine-2-carboxamide]
< 0.1 µM	> 90%	< 0.1 µM	50 to 69%			Cc1ncsc1-c1ccc([C@H](C)NC(=O)[C@@H]2C[C@@H](O)CN2C(=O)[C@@H](c2cc(N3CCC(CN4CCN(c5ccc6c(c5)-n5c(nc(=O)c7c(Cl)cccc75)C6(C)C)CC4)CC3)no2)C(C)C)cc1 [Compound B111, (2S,4R)-1-((R)-2-(3-(4-((4-(4-chloro-7,7-dimethyl-5-oxo-5,7-dihydroindolo[1,2-a]quinazolin-10-yl)piperazin-1-yl)methyl)piperidin-1-yl)isoxazol-5-yl)-3-methylbutanoyl)-4-hydroxy-N-((S)-1-(4-(4-methylthiazol-5-yl)phenyl)ethyl)pyrrolidine-2-carboxamide]
< 0.1 µM	> 90%	< 0.1 µM	> 90%			Cc1ncsc1-c1ccc([C@H](C)NC(=O)[C@@H]2C[C@@H](O)CN2C(=O)[C@H](C(C)C)n2cc(CCN3CCC(c4ccc5c(c4)C(C)(C)c4nc(=O)c6c(Cl)cccc6n4-5)CC3)nn2)cc1 [Compound B17, (2S,4R)-1-((S)-2-(4-(2-(4-(4-chloro-7,7-dimethyl-5-oxo-5,7-dihydroindolo[1,2-a]quinazolin-9-yl)piperidin-1-yl)ethyl)-1H-1,2,3-triazol-1-yl)-3-methylbutanoyl)-4-hydroxy-N-((S)-1-(4-(4-methylthiazol-5-yl)phenyl)ethyl)pyrrolidine-2-carboxamide]
< 0.1 µM	> 90%	< 0.1 µM	> 90%			Cc1cc(C(C(=O)N2C[C@H](O)C[C@H]2C(=O)N[C@@H](C)c2ccc(-c3scnc3C#CCOCCCN3CCC(c4ccc5c(c4)-n4c(nc(=O)c6c(Cl)cccc64)C5(C)C)CC3)cc2)C(C)C)on1 (stereo partly drawn) [Compound B103, (2S,4R)-N-((S)-1-(4-(4-(3-(3-(4-(4-chloro-7,7-dimethyl-5-oxo-5,7-dihydroindolo[1,2-a]quinazolin-10-yl)piperidin-1-yl)propoxy)prop-1-yn-1-yl)thiazol-5-yl)phenyl)ethyl)-4-hydroxy-1-(3-methyl-2-(3-methylisoxazol-5-yl)butanoyl)pyrrolidine-2-carboxamide]
